Assays:
Ab-12 = test: Octet bio-layer interferometry kinetic binding of Ab-12 to peptides; conditions: Octet RED96, 1:1 binding model; for Kd: biotinylated peptide loaded at 200 nM on streptavidin biosensors, Ab-12 100, 50, 25, 12.5 nM; for kdis: peptide on sensor, Ab-12 100-12.5 nM
Method: Briefly, streptavidin biosensors were loaded with biotinylated peptides and baselined in buffer. […] After a short association period, sensors were transferred into buffer and the dissociation of bound anti-CD28 scFv or Ab-12 was measured. The timing and steps of the experiment are shown in the accompanying table. Association and dissociation signals were recorded in real time and analyzed using a 1:1 binding model within the instrument software. Analysis using a 1:1 binding model enabled the calculation of the on and off rate constants as well as affinity, KD.

[1] = tested on: anti-CD28 scFv (SEQ ID NO: 9); test: Octet bio-layer interferometry kinetic binding of anti-CD28 scFv to peptides; parameters: species or system human; conditions: Octet RED96, 1:1 binding model
Method: (§1) Association and dissociation signals were recorded in real time and analyzed using a 1:1 binding model within the instrument software. Analysis using a 1:1 binding model enabled the calculation of the on and off rate constants as well as affinity, KD.
as §1

[2] = biotinylated peptide loaded on streptavidin biosensor, anti-CD28 scFv in solution
[3] = peptide on sensor, CD28 scFv 100-12.5 nM

| Compound | Kd (Ab-12) | kdis (Ab-12) | kdis [1, 2] | kdis [1, 3] |
| --- | --- | --- | --- | --- |
| CSCC[C@H](N)C(=O)N[C@@H](CC(=O)O)C(=O)N[C@@H](Cc1c[nH]c2ccccc12)C(=O)N[C@H]1CSSC[C@@H](C(=O)N[C@@H](Cc2ccccc2)C(=O)N[C@@H](Cc2ccccc2)C(=O)O)NC(=O)[C@H](CC(=O)O)NC(=O)[C@H](C(C)C)NC(=O)[C@H](Cc2c[nH]c3ccccc23)NC(=O)[C@H](CCCNC(=N)N)NC(=O)[C@H](CCC(=O)O)NC(=O)[C@H](CCCNC(=N)N)NC(=O)[C@@H]2CCCN2C1=O [Peptide-9] | 18.8 nM | 0.00317 s⁻¹ | 0.0115 s⁻¹ | 0.0123 s⁻¹ |
| CSCC[C@H](N)C(=O)N[C@@H](CC(=O)O)C(=O)N[C@@H](Cc1c[nH]c2ccccc12)C(=O)N[C@H]1CSSC[C@@H](C(=O)N[C@@H](Cc2ccccc2)C(=O)N[C@@H](C)C(=O)O)NC(=O)[C@H](CCC(=O)O)NC(=O)[C@H](Cc2c[nH]cn2)NC(=O)[C@H](Cc2c[nH]c3ccccc23)NC(=O)[C@H](CC(C)C)NC(=O)[C@H](CC(=O)O)NC(=O)[C@H](CCCNC(=N)N)NC(=O)[C@@H]2CCCN2C1=O [Peptide-38] |  |  | 0.00277 s⁻¹ |  |
| CSCC[C@@H]1NC(=O)[C@H](Cc2c[nH]cn2)NC(=O)[C@H](CC(C)C)NC(=O)[C@@H]2CCCN2C(=O)[C@@H](NC(=O)[C@H](Cc2c[nH]c3ccccc23)NC(=O)[C@H](CC(=O)O)NC(=O)[C@@H](N)CCSC)CSSC[C@@H](C(=O)N[C@@H](Cc2ccccc2)C(=O)N[C@@H](CO)C(=O)O)NC(=O)[C@H](CCC(=O)O)NC(=O)[C@H](Cc2c[nH]cn2)NC(=O)[C@H](Cc2c[nH]c3ccccc23)NC1=O [Peptide-35] |  |  | 0.00497 s⁻¹ |  |
| CSCC[C@H](N)C(=O)N[C@@H](CC(=O)O)C(=O)N[C@@H](Cc1c[nH]c2ccccc12)C(=O)N[C@H]1CSSC[C@@H](C(=O)N[C@@H](Cc2ccccc2)C(=O)N[C@@H](Cc2ccccc2)C(=O)O)NC(=O)[C@H](CCC(=O)O)NC(=O)[C@H](CO)NC(=O)[C@H](Cc2c[nH]c3ccccc23)NC(=O)[C@H](CC(C)C)NC(=O)[C@H](CC(=O)O)NC(=O)[C@H](CCCNC(=N)N)NC(=O)[C@@H]2CCCN2C1=O [Peptide-40] |  |  | 0.0031 s⁻¹ |  |
| CSCC[C@@H]1NC(=O)[C@H](CC(=O)O)NC(=O)[C@H](CCCNC(=N)N)NC(=O)[C@@H]2CCCN2C(=O)[C@@H](NC(=O)[C@H](Cc2c[nH]c3ccccc23)NC(=O)[C@H](CC(=O)O)NC(=O)[C@@H](N)CCSC)CSSC[C@@H](C(=O)N[C@@H](Cc2ccccc2)C(=O)N[C@@H](C)C(=O)O)NC(=O)[C@H](CCC(=O)O)NC(=O)[C@H](CO)NC(=O)[C@H](Cc2c[nH]c3ccccc23)NC1=O [Peptide-43] |  |  | 0.0032 s⁻¹ |  |
| CSCC[C@@H]1NC(=O)[C@H](Cc2c[nH]cn2)NC(=O)[C@H](CCCNC(=N)N)NC(=O)[C@@H]2CCCN2C(=O)[C@@H](NC(=O)[C@H](Cc2c[nH]c3ccccc23)NC(=O)[C@H](CC(=O)O)NC(=O)[C@@H](N)CCSC)CSSC[C@@H](C(=O)N[C@@H](Cc2ccccc2)C(=O)N[C@@H](C)C(=O)O)NC(=O)[C@H](Cc2ccc(O)cc2)NC(=O)[C@H](CC(N)=O)NC(=O)[C@H](Cc2c[nH]c3ccccc23)NC1=O [Peptide-46] |  |  | 0.00218 s⁻¹ |  |
| CC[C@H](C)[C@@H]1NC(=O)[C@@H]2CCCN2C(=O)[C@@H](NC(=O)[C@H](Cc2c[nH]c3ccccc23)NC(=O)[C@H](CC(=O)O)NC(=O)[C@@H](N)CCSC)CSSC[C@@H](C(=O)N[C@@H](Cc2ccccc2)C(=O)N[C@@H](CC(N)=O)C(=O)O)NC(=O)[C@H](C(C)C)NC(=O)[C@H](Cc2c[nH]cn2)NC(=O)[C@H](Cc2c[nH]c3ccccc23)NC(=O)[C@H](CC(C)C)NC(=O)[C@H](Cc2c[nH]cn2)NC1=O [Peptide-32] |  |  | 0.00295 s⁻¹ |  |
| CSCC[C@@H]1NC(=O)[C@H](Cc2ccccc2)NC(=O)[C@H](CCCNC(=N)N)NC(=O)[C@@H]2CCCN2C(=O)[C@@H](NC(=O)[C@H](Cc2c[nH]c3ccccc23)NC(=O)[C@H](CC(=O)O)NC(=O)[C@@H](N)CCSC)CSSC[C@@H](C(=O)N[C@@H](Cc2ccccc2)C(=O)N[C@@H](CC(N)=O)C(=O)O)NC(=O)[C@H](CCC(=O)O)NC(=O)[C@H](CC(=O)O)NC(=O)[C@H](Cc2c[nH]c3ccccc23)NC1=O [Peptide-45] |  |  | 0.00364 s⁻¹ |  |
| CSCC[C@H](N)C(=O)N[C@@H](CC(=O)O)C(=O)N[C@@H](Cc1c[nH]c2ccccc12)C(=O)N[C@H]1CSSC[C@@H](C(=O)N[C@@H](Cc2ccccc2)C(=O)N[C@@H](CC(N)=O)C(=O)O)NC(=O)[C@H](CCC(=O)O)NC(=O)[C@H](CC(N)=O)NC(=O)[C@H](Cc2c[nH]c3ccccc23)NC(=O)[C@H](CC(C)C)NC(=O)[C@H](Cc2ccc(O)cc2)NC(=O)[C@H](CC(C)C)NC(=O)[C@@H]2CCCN2C1=O [Peptide-36] |  |  | 0.00252 s⁻¹ |  |
| CSCC[C@@H]1NC(=O)[C@H](CC(=O)O)NC(=O)CNC(=O)[C@H](Cc2c[nH]c3ccccc23)NC(=O)[C@H](Cc2ccc(O)cc2)NC(=O)[C@H](Cc2c[nH]cn2)NC(=O)[C@@H](NC(=O)[C@H](Cc2ccc(O)cc2)NC(=O)CN)CSSC[C@@H](C(=O)NCC(=O)O)NC(=O)[C@H](Cc2c[nH]c3ccccc23)NC(=O)[C@H](CCSC)NC(=O)[C@H](C(C)C)NC1=O [Peptide-12] | 13.1 nM | 0.00127 s⁻¹ |  | 0.00167 s⁻¹ |
| CSCC[C@H](N)C(=O)N[C@@H](CC(=O)O)C(=O)N[C@@H](Cc1c[nH]c2ccccc12)C(=O)N[C@H]1CSSC[C@@H](C(=O)N[C@@H](Cc2ccccc2)C(=O)N[C@@H](C)C(=O)O)NC(=O)[C@H](Cc2c[nH]cn2)NC(=O)[C@H](C(C)C)NC(=O)[C@H](Cc2c[nH]c3ccccc23)NC(=O)[C@H](CC(C)C)NC(=O)[C@H](CC(=O)O)NC(=O)[C@H](CCCNC(=N)N)NC(=O)[C@@H]2CCCN2C1=O [Peptide-41] |  |  | 0.00154 s⁻¹ |  |
